Measurements: patent publication US20250177269A1, “COMPOSITION FOR PROMOTING HAIR SPROUTING OR HAIR GROWTH CONTAINING A THYMOL ESTER-BASED COMPOUND” (AMOREPACIFIC CORPORATION, priority 2023, published 2025)

System: dermal papilla (DP) cells and outer root sheath (ORS) cells
Test: "Two-Cell Assemblage" Assay, hair growth-promoting efficacy
Type: cell-based
Conditions: 10 ppm, 20 ppm; cultured for 5 days; vs. control
Experimental: The hair growth-promoting efficacy of 3,4,5-trimethoxycinnamate thymol ester (Melasolv) according to the concentration (10 ppm, 20 ppm) was evaluated using “Two-Cell Assemblage” Assay (“Two-Cell Assemblage” Assay: A Simple in vitro Method for Screening Hair Growth-Promoting Compounds) (Front Cell Dev Biol. 2020 Nov. 24; 8:581528).
The “Two-Cell Assemblage” Assay is an evaluation method that mimics the hair growth of actual hair follicles by co-culturing dermal papilla (DP) cells and outer root sheath (ORS) cells that constitute the hair follicle. That is, the length growth of the “Two-Cell Assemblage” structure has a mechanism similar to that of the actual hair follicle growth, and is being used as a new method of evaluating hair growth-promoting efficacy.
5,000 hair follicle dermal papilla cells were seeded on an ultra-low attachment 96-well plate to form 3D spheroids. After 24 hours, 5,000 outer root sheath cells (Kyungpook National University Industry-Academic Cooperation Foundation) were added together with the test substance to create a “Two-Cell assemblage” structure and cultured for 5 days under 37° C., 5% CO2 conditions. After culturing for 5 days, the length growth was measured using a microscope (OLYMPUS, SZX16) and shown in the Figure (* p<0.05, ** p<0.01, *** p<0.001 vs. control).

COc1cc(/C=C/C(=O)Oc2cc(C)ccc2C(C)C)cc(OC)c1OC [Melasolv, (5-methyl-2-propan-2-ylphenyl) (E)-3-(3,4,5-trimethoxyphenyl) prop-2-enoate]
length growth of the "Two-Cell Assemblage" structure (hair growth efficacy): significant level of length growth-promoting efficacy
